Like-named read-outs stand apart in the source and are kept apart here.
Assays:
Brown Norway rats, STZ = assay: Diabetic retinopathy prevention study in STZ treated rat (IVT); assay type: in vivo; settings: 0.2 and 2 μg/eye IVT
Excerpt: The objective of this study was to determine the ability of XG-102 to prevent diabetic retinopathy when administered by intravitreal injections to streptozotocin (STZ)-treated (hyperglycemic) rats.
Sterile vials containing 0.0412 g of inducing agent (STZ) were pre-weighed, sealed and transferred to the dosing room for administration to Groups 2 to 4 animals and Spares on Day −7. A duplicate set of empty, appropriately labeled sterile vials were provided. The reconstituted STZ solution was filtered into these vials for dosing. The Reference Item, 0.9% NaCl, was administered as received. XG-102 was prepared using the correction factor 1.383. A stock solution equal to the highest dose level was prepared in vehicle, 0.9% Sodium Chloride for Injection, and sterile filtered through a 0.22 μm polyvinylidene difluoride (PVDF) filter. The lower dose levels were prepared by directly diluting the stock solution. Dose formulations were prepared once at appropriate concentrations to meet dosage level requirements. All dilutions were prepared by directly diluting the stock solution with vehicle. Three dosing aliquots (Days 1, 8 and 15) were prepared and stored in a freezer set to maintain −20° C. Aliquot(s) of each dose level were thawed at ambient temperature on each day of dosing and the solution maintained at room temperature for no longer than 6 hours. […]

[1] = system: patients after ocular surgery; assay: Clinical Phase II, post-surgery intraocular inflammation: safety; settings: for AEs considered by the Investigator to be related to Dexamethasone / AEs considered by the Investigator to be related to XG-102: blinded assessment
Protocol: The criteria for evaluation of safety were: • a. Visual acuity by ETDRS method • b. Slit Lamp examination findings • c. The results of the ophthalmic fundus examination • d. Intra Ocular Pressure (IOP) measurements • e. Vital signs (blood pressure (BP), pulse rate (PR) and rhythm) • f. The results of the hematology and chemistry laboratory tests • g. The occurrence of Adverse Events • h. Presence (or not) of XG-102 in plasma 1 hour after the administration of study treatment in a subset of patients (approximately 30).
An AE is therefore any unfavorable and unintended sign, symptom or disease temporally associated with the use of a medicinal product, whether or not considered related to the medicinal product.
A Suspected Unexpected Serious Adverse Reaction (SUSAR) was defined as a suspected adverse reaction related to the treatment that is both unexpected (i.e. not consistent with the expected outcomes of the study treatment being administered) and serious.
Patients were analyzed as treated, i.e. according to the treatment which they received. The safety set was the primary analysis set for the safety analysis.
The present study was a double-blind study. All patients who were randomized and for whom the sub-conjunctival injection was started are included in the safety analysis by dose group. […] If the study treatment eye drops were stopped prematurely (i.e. before day 21), the patients concerned continued follow-up until day 28, in accordance with the study protocol.
Investigators assessed (in a blinded manner) the relationship of each reported AE to any of the study treatments. An event was considered to be related to study treatment if the Investigator ticked either ‘possible’ or ‘probable’ as the reply to this question.

[2] = system: Primary cultured macrophages; assay type: cell-based
Protocol: FIG. 24 Primary cultured macrophages were incubated with XG-102 (SEQ ID NO: 11) and extensively washed.

db/db mice = settings: mouse, in vivo
Excerpt: i) Animals • A total of twenty (20) male db/db mice (8 weeks old) were obtained from Charles River (Germany). Upon arrival, animals were group housed (n=6-7/group) and offered regular rodent chow (Altromin standard #1324 chow; C. Petersen, Ringsted, Denmark) and water ad libitum unless otherwise stated. The mice were housed under a 12:12 L/D cycle (lights on at 4:00 and lights off at 16:00) and in temperature and humidity controlled rooms.
ii) Groups and Randomization • On day −4, mice were randomized according to blood glucose level (fasted; blood glucose measured on Biosen S line analyzer (EKF diagnostic, Germany) to participate in one of the following drug treatment groups (n=6): • 1) Vehicle control, S.C. (physiological saline) • 2) XG-102 (SEQ ID NO: 11); 1 mg/kg; s.c. • 3) XG-102 (SEQ ID NO: 11); 10 mg/kg; s.c • All doses listed were calculated for the free-base. […] All compounds were administered sub-cutaneously (s.c.) in a volume of 3 ml/kg. The formulation instructions for vehicle control and XG-102 (SEQ ID NO: 11) were as follows: • First, XG-102 (SEQ ID NO: 11) was dissolved in the vehicle. […]
i) Blood Glucose • Blood glucose was measured from 7 hour fasted animals 6 hours post dosing by collection of 10 μl blood samples from the tail-vein in hematocrite tubes and subsequent analysis on a Biosen s-line analyzer (EKF-diagnostic; Germany).

CC(C)C[C@@H](NC(=O)[C@@H](Cc1ccccc1)NC(=O)[C@H]1CCCN1C(=O)[C@@H](CCC(N)=O)NC(=O)[C@H](NC(=O)[C@H]1CCCN1C(=O)[C@@H](CCCNC(=N)N)NC(=O)[C@@H](CO)NC(=O)[C@@H](CCC(N)=O)NC(=O)[C@H](N)CC(=O)O)C(C)C)C(=O)N[C@H](CC(N)=O)C(=O)N[C@H](CC(C)C)C(=O)N[C@@H](C(=O)N[C@@H](C(=O)N1CCC[C@@H]1C(=O)N[C@H](CCCNC(=N)N)C(=O)N[C@H](CCCCN)C(=O)N1CCC[C@@H]1C(=O)N[C@H](CCCNC(=N)N)C(=O)N1CCC[C@@H]1C(=O)N1CCC[C@@H]1C(=O)N[C@H](CCCNC(=N)N)C(=O)N[C@H](CCCNC(=N)N)C(=O)N[C@H](CCCNC(=N)N)C(=O)N[C@H](CCC(N)=O)C(=O)N[C@H](CCCNC(=N)N)C(=O)N[C@H](CCCNC(=N)N)C(=O)N[C@H](CCCCN)C(=O)N[C@H](CCCCN)C(=O)N[C@H](CCCNC(=N)N)C(=O)NCC(=O)O)[C@H](C)O)[C@H](C)O [XG-102]
clinical signs, body weights, food consumption (Brown Norway rats, STZ): no XG-102-related clinical signs or effects on body weights, body weight gains or food consumption
deaths (Brown Norway rats, STZ): no XG-102-related deaths during the study
AEs possibly or probably related to study treatment as assessed by the Investigator ([1]; 90 μg XG-102 (N = 47)): 18 Total # events
AEs considered by the Investigator to be related to Dexamethasone ([1]; 90 μg XG-102 group): 2 (2.6%) Total # events (%)
AEs considered by the Investigator to be related to XG-102 ([1]; 90 μg XG-102 group): 16 (20.5%) Total # events (%)
AEs possibly or probably related to study treatment as assessed by the Investigator ([1]; 900 μg XG-102 (N = 48)): 13 Total # events
AEs considered by the Investigator to be related to Dexamethasone ([1]; 900 μg XG-102 group): 1 (1.5%) Total # events (%)
AEs considered by the Investigator to be related to XG-102 ([1]; 900 μg XG-102 group): 12 (17.4%) Total # events (%)
AEs possibly or probably related to study medication ([1]; XG-102 90 μg): 18 events
Intraocular pressure increased, patients ([1]; XG-102 90 μg): 23%
events in SOC EYE DISORDERS ([1]; XG-102 90 μg): 49 events
events resulting in premature withdrawal of study treatment eye drops ([1]; XG-102 90 μg): 11 events
patients with SAEs ([1]; XG-102 90 μg): 4 patients
patients with events in SOC EYE DISORDERS ([1]; XG-102 90 μg): 26 (55%)
percentage of patients with an AE within 24 hours after administration ([1]; XG-102 90 μg): 34%
total number of AEs reported ([1]; XG-102 90 μg): 78
Reported AEs by severity: Mild ([1]; XG-102 90 μg dose group): 55 (70.5%) number of events (% of reported events)
Reported AEs by severity: Moderate ([1]; XG-102 90 μg dose group): 6 (7.7%) number of events (% of reported events)
Reported AEs by severity: Severe ([1]; XG-102 90 μg dose group): 17 (21.7%) number of events (% of reported events)
AEs possibly or probably related to study medication ([1]; XG-102 900 μg): 13 events
Intraocular pressure increased, patients ([1]; XG-102 900 μg): 10%
events in SOC EYE DISORDERS ([1]; XG-102 900 μg): 43 events
events resulting in premature withdrawal of study treatment eye drops ([1]; XG-102 900 μg): 8 events
patients with SAEs ([1]; XG-102 900 μg): 3 patients
patients with events in SOC EYE DISORDERS ([1]; XG-102 900 μg): 24 (50%)
percentage of patients with an AE within 24 hours after administration ([1]; XG-102 900 μg): 27%
total number of AEs reported ([1]; XG-102 900 μg): 69
Reported AEs by severity: Mild ([1]; XG-102 900 μg dose group): 49 (71.0%) number of events (% of reported events)
Reported AEs by severity: Moderate ([1]; XG-102 900 μg dose group): 12 (17.4%) number of events (% of reported events)
Reported AEs by severity: Severe ([1]; XG-102 900 μg dose group): 8 (11.6%) number of events (% of reported events)
Eye pain ([1]; XG-102 900 μg vs dexamethasone (p=0.029)): Eye pain was more frequently reported for patients allocated to the XG-102 900 μg group
incorporation into macrophages [2]: is strongly incorporated into primary macrophages
reaction of subcutaneous tissue at injection (db/db mice; 1 mg/kg): mild nodular fibrosis was observed
reaction of subcutaneous tissue at injection (db/db mice; 10 mg/kg): nodular fibrosis was observed in the subcutaneous tissue
